As a reminder, the TGI is the concentration at which net growth stops. A higher TGI goes with less potent growth arrest. As a reminder, the GI50 is the concentration that inhibits growth by half.

These results are taken from PubChem BioAssay (NCI).

Common to all, as to test: DTP human tumour cell line panel, 48 h
Test [1] relates to HCT-116 colon.
In test [2] the test system is OVCAR-4 ovarian.
Test [3] relates to SK-MEL-28 melanoma.
Test [4] deals with SN12C renal.
For test [5], the system named is SNB-19 CNS.
For test [6], the system named is TK-10 renal.
Test [7] deals with U251 CNS.
Test [8] relates to UACC-62 melanoma.
Test [9] has as its system UO-31 renal.

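The compound was tested at five concentrations on cells cultured in 96-well plates, with a 48-hour exposure period. Here, GI50 denotes the concentration required for 50% inhibition of growth. The concentration for full growth arrest is given as TGI.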

On to `CC1OC(n2cc(I)c(=O)[nH]c2=O)C=CC1=O` (configuration not stated), for which the TGI in test [1] is 24.9 µM; in test [2], 29.8 µM; in test [3] it was 29.2 µM; in test [4], 33.3 µM; in test [5] it was 32.1 µM; in test [6], 32.9 µM. The concentration for total growth inhibition (TGI) worked out at 27.6 µM in [7], 31.2 µM in test [8] and 30.5 µM in test [9].

In the case of `C[C@]12CC/C(=N\OC(=O)Nc3ccccc3)C=C1CC[C@@H]1C2CC[C@@]2(C)C1CC[C@@H]2OC(=O)Nc1ccccc1` (some centres not stated), the TGI was greater than 100 µM in test [1]; greater than 100 µM in [2]; 30.8 µM in test [4]; greater than 100 µM in [5]; greater than 100 µM in test [6]; greater than 100 µM in test [7]. Besides, the TGI in test [8] and in test [9] was greater than 100 µM throughout.

Regarding `N#CC(C(=O)C(=O)Nc1ccc(Cl)c(Cl)c1)c1ccc(Cl)cc1` (configuration not stated), the TGI in test [1] is 49.8 µM; in [3], greater than 100 µM; in test [4], greater than 100 µM; in [5] it was greater than 100 µM; in [6] it was greater than 100 µM; in test [7] it was greater than 100 µM. Besides, the TGI in test [8] and in test [9] was greater than 100 µM each time.

Regarding `CCCCCCCCCCCCCC(=O)OC1C(CO)OC(=O)C1O` (configuration not stated), the TGI in test [1], in test [2], in test [4], in [5], in test [6] and in test [7] was greater than 100 µM throughout. Also, the total growth inhibition concentration (TGI) in test [8] and in [9] was greater than 100 µM in each case.

Take `COc1cccc(N2C(=O)[C@H]3[C@H]4CC(C(C)(C)C)CC[C@H]4c4c([nH]c5ccccc45)[C@H]3C2=O)c1` (some centres not stated): the concentration for total growth inhibition (TGI) in test [3] is 35.6 µM; in test [4], 26.5 µM; in test [5], 33.9 µM; in test [6], 28.8 µM; in test [8], 28.3 µM; in [9], 35.5 µM.

Regarding `CSC1CC2C(CC1(C)SC)C2(C)C` (configuration not stated), the TGI in test [2], in [3], in test [5], in [6], in [7] and in [8] was greater than 100 µM throughout. Further, the total growth inhibition concentration (TGI) in [9] was greater than 100 µM.

With `O=C(CC(=O)c1cccc([N+](=O)[O-])c1)C(=O)Nc1nc([N+](=O)[O-])cs1`, the TGI in test [1], in test [2], in test [3], in test [4], in test [5] and in test [6] was greater than 100 µM in each case. Moreover, the TGI in test [7], in [8] and in test [9] was greater than 100 µM throughout.

As for `COc1ccc2c([nH]c3cc(O)c(C)cc32)c1CC=C(C)C`, the GI50 is 11.9 µM in test [1], 5.89 µM in test [7], 9.11 µM in test [8] and 14.3 µM in test [9]. For the same compound, the total growth inhibition concentration (TGI) was greater than 25 µM in test [1]; greater than 25 µM in [2]; greater than 25 µM in test [3]; 10.8 µM in [4]; greater than 25 µM in test [5]; 13.7 µM in [7]. Besides, the TGI in test [8] and in test [9] was greater than 25 µM in each case.

As to `COc1cc2c(cc1OC)C1(c3ccccc3)ON=C(c3ccccc3)N1CS2` (configuration not stated), the TGI in [1], in test [2], in test [3], in [4], in test [5] and in test [6] was greater than 100 µM each time. For the same compound, the TGI in test [7], in test [8] and in test [9] was greater than 100 µM throughout.

`Cc1ccc(C(O)/C(=N/N)c2nc3ccc([N+](=O)[O-])cc3[nH]c2=O)cc1` (configuration not stated): the TGI in test [1], in test [2], in [3], in test [4], in [5] and in test [6] was greater than 100 µM in each case. Also, the TGI in test [7], in [8] and in test [9] was greater than 100 µM in each case.

`CC(=O)O[C@]12CCCCC1C1(O)C(O)CCCC[C@H]12` (some centres not stated): the TGI in test [1], in [2], in test [3], in test [4], in test [5] and in test [6] was greater than 100 µM in each case. Further, the TGI in [7], in test [8] and in test [9] was greater than 100 µM throughout.

For `CCOc1ccc(N=Nc2c(-c3ccccc3)nn(C(=O)CC(=O)Nc3cccc(C)c3)c2-c2ccccc2)cc1`, the concentration for total growth inhibition (TGI) in test [1], in test [2], in [3], in [4], in test [5] and in test [6] was greater than 100 µM throughout. For the same compound, the TGI in test [7], in test [8] and in test [9] was greater than 100 µM each time.

As to `CO[C@]12CCC(=O)N1C=Cc1c2[nH]c2ccccc12`, the total growth inhibition concentration (TGI) in [1], in [2], in test [3], in test [5], in test [6] and in test [8] was greater than 100 µM throughout. The TGI in [9] is greater than 100 µM.

With `C/C=C/C=C\C(=O)C1c2cccc(O)c2C(=O)c2c(O)cc(C)cc21` (configuration not stated), the TGI was determined as 2.92 µM in test [1]; 3.3 µM in test [2]; 3.51 µM in test [3]; 5.74 µM in test [4]; 2.5 µM in test [5]; 3.76 µM in test [6]. Besides, the concentration for total growth inhibition (TGI) in test [7] was found to be 1.63 µM; in [9], 3.08 µM.

Turning to `CC(C)N(C(=O)C12C3C4C5C3C1(C#N)C5C42)C(C)C` (configuration not stated), the TGI in test [1], in test [2], in test [3], in test [4], in test [5] and in [6] was greater than 100 µM throughout. The concentration for total growth inhibition (TGI) in [7], in [8] and in test [9] was greater than 100 µM throughout.
